The values below come from DBAASP.

≈ marks a conversion by molar mass, not a printed value. Bounds are passed on as bounds.

Among the test systems are Escherichia coli UB1005; Escherichia coli D21; Escherichia coli ML-35; Bacillus megaterium Bm11; Escherichia coli BW25113; Escherichia coli; Bacillus subtilis.
What all share (assay): ≥ marks a high value that may be exact or a test limit, other limits are often not marked, values filed in µg/mL are converted to µM
For assay [1], the system named is Salmonella enterica subsp. enterica serovar Typhi CMCC 50071.
In assay [2] the test system is Escherichia coli ATCC 25922.
Assay [3] has as its system Salmonella enterica subsp. enterica serovar Pullorum C79-13.
Assay [4] concerns Listeria monocytogenes CMCC 54004.
Assay [5] has as its system Staphylococcus aureus ATCC 29213.
For assay [6], the system named is Staphylococcus epidermidis ATCC 12228.
In assay [7] the test system is Serratia marcescens ATCC 8100.
For assay [8], the system named is Salmonella enterica subsp. enterica serovar Typhimurium ATCC 14028.
For assay [9], the system named is Bacillus subtilis KCTC 1998.
In assay [10] the test system is Pseudomonas aeruginosa 4007.
Assay [11] deals with Escherichia coli CCARM 1238.
The test system of assay [12] is Escherichia coli CCARM 1229.
For assay [13], the system named is Trichosporon beigelii KCTC 7707.
For assay [14], the system named is Staphylococcus aureus ATCC 25923.
The subject of assay [15] is Pseudomonas aeruginosa ATCC 27853.
Assay [16] deals with Staphylococcus aureus CCARM 3090.
The test system of assay [17] is Staphylococcus aureus CCARM 3518.
Assay [18] deals with Salmonella typhimurium KCTC 1926.
Assay [19] has as its system Candida albicans KCTC 7270.
For assay [20], the system named is Pseudomonas aeruginosa 4891.
The test system of assay [21] is Listeria monocytogenes KCTC 3710.
Assay [22] has as its system Candida albicans ATCC 90028.
Assay [23] deals with Enterococcus faecalis ATCC 29212.
Assay [24] deals with Malassezia furfur KCTC 7744.
Assay [25] relates to Aspergillus flavus KCTC 6905.
Assay [26] concerns Streptococcus mutans KCTC 3065.
The subject of assay [27] is Candida parapsilosis ATCC 22019.
The test system of assay [28] is Staphylococcus epidermidis KCTC 1917.
For assay [29], the system named is Enterococcus faecium ATCC 19434.
The subject of assay [30] is Salmonella enterica subsp. enterica serovar Enteritidis ATCC 13076.
The test system of assay [31] is Aspergillus fumigatus KCTC 6145.
The subject of assay [32] is Streptococcus pyogenes ATCC 19615.
In assay [33] the test system is Staphylococcus epidermidis ATCC 51625.
The subject of assay [34] is Klebsiella pneumoniae ATCC 13883.
Assay [35] has as its system Staphylococcus aureus ATCC BAA-44.

For `CC(C)C[C@H](NC(=O)[C@H](CCC(N)=O)NC(=O)[C@@H]1CCCN1C(=O)[C@@H](NC(=O)[C@H](CCCCN)NC(=O)[C@H](Cc1ccc(O)cc1)NC(=O)[C@H](CCCCN)NC(=O)[C@H](CCCCN)NC(=O)[C@H](CC(C)C)NC(=O)[C@H](CCCN=C(N)N)NC(=O)[C@@H](N)CC(C)C)C(C)C)C(=O)O` [LRLKKYKVPQL], the MIC was not below 256 µM in [1]; 64 µM (≈ 88.7 µg/mL) in assay [2]; not below 256 µM in [3]; not below 128 µM in the assay on Escherichia coli UB1005; not below 64 µM in [4]; 640 µM (≈ 887 µg/mL) in [5].
On to `CC(C)C[C@H](NC(=O)[C@H](Cc1ccc(O)cc1)NC(=O)[C@@H]1CCCN1C(=O)[C@@H]1CCCN1C(=O)[C@H](CCCN=C(N)N)NC(=O)[C@@H]1CCCN1C(=O)[C@H](CCCN=C(N)N)NC(=O)[C@H](CCCN=C(N)N)NC(=O)[C@@H](N)CCCN=C(N)N)C(=O)N1CCC[C@H]1C(=O)N1CCC[C@H]1C(=O)N[C@@H](CCCN=C(N)N)C(=O)N[C@@H](CCCN=C(N)N)C(=O)N1CCC[C@H]1C(=O)N1CCC[C@H]1C(=O)O` [RRRPRPPYLPPRRPP], for which the MIC is 16 µM (≈ 30.6 µg/mL) against Escherichia coli D21; more than 64 µM in [6]; not below 32 µM in assay [7]; 8 µM (≈ 15.3 µg/mL) in assay [8]; not below 32 µM against Escherichia coli ML-35; not below 32 µM against Bacillus megaterium Bm11.
On to `CC[C@H](C)[C@H](NC(=O)CNC(=O)[C@H](CCC(N)=O)NC(=O)[C@H](Cc1ccccc1)NC(=O)[C@@H](NC(=O)[C@H](CCCCN)NC(=O)[C@H](CCCCN)NC(=O)[C@H](CC(C)C)NC(=O)[C@H](C)NC(=O)[C@H](CC(N)=O)NC(=O)[C@H](CC(C)C)NC(=O)[C@@H](N)Cc1c[nH]c2ccccc12)C(C)C)C(=O)N[C@@H](Cc1cnc[nH]1)C(=O)N[C@@H](CCC(=O)O)C(=O)N[C@@H](C)C(=O)N[C@H](C(=O)N[C@@H](CCCCN)C(=O)N[C@@H](CC(C)C)C(=O)N[C@H](C(=O)N[C@@H](Cc1c[nH]c2ccccc12)C(=O)N[C@@H](CC(N)=O)C(=O)N[C@@H](Cc1cnc[nH]1)C(=O)N[C@H](C(=O)N[C@@H](CCC(N)=O)C(N)=O)C(C)C)[C@@H](C)CC)[C@@H](C)CC` [WLNALKKVFQGIHEAIKLIWNHVQ], for which the MIC in assay [9] was 4 µM (≈ 11.5 µg/mL); in [10] it was 2 µM (≈ 5.77 µg/mL); in assay [11], 2 µM (≈ 5.77 µg/mL); in [12], 2 µM (≈ 5.77 µg/mL); in [13] it was not below 32 µM; in [2], 2 µM (≈ 5.77 µg/mL). Also, the MIC in assay [14] was 4 µM (≈ 11.5 µg/mL); in assay [15] it was 2 µM (≈ 5.77 µg/mL); in assay [16], 4 µM (≈ 11.5 µg/mL); in assay [17] it was 4 µM (≈ 11.5 µg/mL); in assay [18] it was 2 µM (≈ 5.77 µg/mL); in assay [19], not below 32 µM. For the same compound, the MIC stood at 4 µM (≈ 11.5 µg/mL) in assay [20] and 8 µM (≈ 23.1 µg/mL) in assay [21].
Regarding `CC(C)C[C@H](NC(=O)[C@H](CCCCN)NC(=O)[C@H](CC(C)C)NC(=O)[C@H](CC(N)=O)NC(=O)[C@H](CC(C)C)NC(=O)[C@H](CCCCN)NC(=O)[C@H](CS)NC(=O)[C@@H]1CCCN1C(=O)[C@@H](N)Cc1ccc(O)cc1)C(=O)NCC(=O)N[C@@H](CCCCN)C(=O)N[C@H](C(=O)N1CCC[C@H]1C(=O)N[C@@H](Cc1ccccc1)C(=O)N[C@@H](Cc1cnc[nH]1)C(N)=O)C(C)C` [YPCKLNLKLGKVPFH], the MIC was 10 µM (≈ 17.6 µg/mL) in [22]; 2.5 µM (≈ 4.39 µg/mL) in assay [23]; 5 µM (≈ 8.78 µg/mL) in assay [24]; 10 µM (≈ 17.6 µg/mL) in assay [25]; 5 µM (≈ 8.78 µg/mL) in assay [26]; 5 µM (≈ 8.78 µg/mL) in assay [13]. The MIC in [27] was determined as 5 µM (≈ 8.78 µg/mL); in assay [15] it was 10 µM (≈ 17.6 µg/mL); in [28], 5 µM (≈ 8.78 µg/mL); in [29], 2.5 µM (≈ 4.39 µg/mL); in [30] it was 5 µM (≈ 8.78 µg/mL); in assay [18] it was 5 µM (≈ 8.78 µg/mL). Moreover, the MIC in the assay on Escherichia coli BW25113 came out at 5 µM (≈ 8.78 µg/mL); in [31] it was 10 µM (≈ 17.6 µg/mL).
Regarding `CC(C)C[C@H](NC(=O)[C@H](CO)NC(=O)[C@H](CCCN=C(N)N)NC(=O)[C@H](CCCCN)NC(=O)[C@@H](NC(=O)[C@@H](NC(=O)CNC(=O)[C@H](CCCN=C(N)N)NC(=O)[C@H](Cc1cnc[nH]1)NC(=O)[C@H](Cc1c[nH]c2ccccc12)NC(=O)[C@H](Cc1ccccc1)NC(=O)[C@H](Cc1cnc[nH]1)NC(=O)[C@H](Cc1ccc(O)cc1)NC(=O)[C@@H](N)Cc1ccc(O)cc1)C(C)C)[C@@H](C)O)C(=O)N[C@@H](CO)C(=O)N1CCC[C@H]1C(=O)N[C@@H](Cc1cnc[nH]1)C(=O)N[C@@H](CCCN=C(N)N)C(=O)N1CCC[C@H]1C(=O)N[C@@H](CCCN=C(N)N)C(=O)O` [YYHFWHRGVTKRSLSPHRPR], the MIC was determined as 15 µM (≈ 38.7 µg/mL) in assay [32]; 30 µM (≈ 77.4 µg/mL) in [33]; 6 µM (≈ 15.5 µg/mL) in assay [23]; 6 µM (≈ 15.5 µg/mL) in [34]; 8 µM (≈ 20.6 µg/mL) in assay [8]; 6 µM (≈ 15.5 µg/mL) with Escherichia coli. Further, the MIC in assay [14] worked out at 6 µM (≈ 15.5 µg/mL); in assay [15], 8 µM (≈ 20.6 µg/mL); against Bacillus subtilis it was 6 µM (≈ 15.5 µg/mL); in assay [35], 30 µM (≈ 77.4 µg/mL).

As a reminder, the MIC is the least concentration at which growth counts as inhibited.
